The text below walks through data of patent US20210077492A1, “METHODS AND COMPOSITIONS OF TREATING PANCREATIC CANCER” (The Trustees of Indiana University, priority 2019, published 2021).

In assay [1] the test system is pancreatic cancer cell line ASPC1. The assay can be described thus: LINE1 global 5-methyl-cytosine DNA methylation assay in treated or transfected cells. Particulars: concentration not given. It counts as cell-based, human. As for the experimental part:
DNA Methylation of normal pancreas and PDAC tumor samples was analyzed using data available through the MethHC database (http://methhc.mbc.nctu.edu.tw/php/index.php) using the PAAD dataset. Methylation analysis was performed at transcriptional start sites (TSS), promoters, and CpG island. For global DNA methylation changes, cells were transfected with shRNA against human UHRF1 (Dharmacon Horizon, catalog V3SH7590-225743149) for 96 hours or treated with THU (1 μM) DT1 (0.5-15 μM) or 5-aza-cytidine (1 μM). DNA was isolated using the Clonetech NucleoSpin DNA rapid lyse kit (catalog 740110.1) following manufacture's recommended conditions. 100 ng of isolated DNA was used to quantify DNA methylation using the 5mC-Long Interspersed Nucleotide Element 1 (LINE-1) kit from Active Motif (catalog number 55017) following the manufacture's recommendations. A Colorimetric ELISA readout was measured on a BioTek synhergy HI reader at 450 nm.
Referring now to FIG. 17, pancreatic cancer cell line ASPC1 was transfected with shRNA against UHRF1. DNA (100 ng) was isolated from shUFRF1 and scramble transfected cells at 96 hours post transfection and was used for quantification of global 5-methyl-cytosine methylation using LINE1 global DNA methylation kit (ACTIVE MOTIF).
Referring now to FIG. 23, primary PDAC cells were incubated with 2 μM of DT1 and 1 uM of THU for 96 hrs. […]

For assay [2], the system named is PDAC cell lines ASPC1, MiaPaCa-2, BXPC3. The experiment in a line: Cell proliferation of PDAC cell lines by automated IncuCyte incubator. It is filed as cell-based, human. As for the experimental part: A panel of pancreatic cancer cell lines (PCCs) was ordered from ATCC (https://www.atcc.org). Cells were cultured in RPMI media supplemented with 10% FBS and 1% penicillin streptomycin (100 units/ml of penicillin and […] of streptomycin) in a 37° C. incubator with 5% Carbon dioxide (CO2). All cell lines were confirmed to be mycoplasma-free using a Mycoalert detection kit (Lonza Allendale N.J., catalog #LT07-218) as per manufacturer's protocol. For DT1, DAC, and THU treatments, 1000 cells were plated in a 96 well plate overnight. Cells were treated three times at 24, 48, and 72 hours post-plating using concentrations of 0.2-2 μM of DT1 and DAC and 1-2 μM of THU independently or in combination. DMSO was used as a vehicle control. Cell proliferation was measured in a 37° C., Incucyte incubator (IncuCyte™ live-cell, Essen biosciences, Michigan USA) with 5% CO2 for automated live cell proliferation in real time, and images were taken every 6 hours for up to 160 hours. Cells were also counted on a Beckman coulter automated cell counter. Referring now to FIG. 27, primary PDAC cell line ASPC1 was incubated with 2 μM DT1 to inhibit UHRF1 and/or DNMT1 inhibitor DAC or CDA inhibitor THU (1 μM) or […], 0.2 μM DAC and THU (1 μM). Cell proliferation was quantified by automated IncuCyte incubator for 160 hours. […] Referring now to FIG. 28, primary PDAC cell line MiaPaCa-2 was incubated with 2 μM DT1 to inhibit UHRF1 and/or DNMT1 inhibitor DAC or CDA inhibitor THU (1 μM) or […], 0.2 μM DAC, and THU (1 μM). Cell proliferation was quantified by automated IncuCyte incubator for 160 hours. […] Referring now to FIG. 29, primary PDAC cell line BXPC3 was incubated with 2 μM DT1 to inhibit UHRF1 and/or DNMT1 inhibitor DAC or CDA inhibitor THU (1 μM) or […], 0.2 μM DAC, and THU (1 μM). Cell proliferation was quantified by automated IncuCyte incubator for 160 hours. […] Decitabine (DAC) is a clinically available drug that degrades DNMT1 to decrease DNA methylation while DT1 targets UHRF1.

The test system of another assay is ASPC1 and BXPC3 cells. The experiment in a line: Gene expression of pancreas differentiation factors by qPCR. It is filed as cell-based, human. The note with it: DT1 at 0.5-2 μM. As for the experimental part: Gene expression analysis by real time quantitative polymerase chain reaction (qRT-PCR) was performed using standard methods. Gene expression of target genes was performed using either SYBR green methods or Power Green ROX dye master mix (Applied Biosystems, Foster city CA, USA Lot number 1610538). Assays were performed with an Applied Biosytems ViiA7 (Life Technologies).
Referring now to FIG. 23, primary PDAC cells were incubated with 2 μM of DT1 and 1 uM of THU for 96 hrs. RNA was isolated and gene expression pancreas differentiation factors were analyzed in ASPC1 and BXPC3 cells. Referring now to FIG. 24, primary PDAC cell line ASPC1 was treated with 1 μM of THU, 2 μM of DT1, and 1 μM of DAC, or the combination of 0.5 μM of DT1 plus 0.2 μM of DAC, or 1 μM of THU and 0.5 μM of DT1 plus 0.2 μM of DAC. Morphological analysis was performed using a giemsa staining method to determine induction of differentiation (enlargement of cytoplasm and reduction of nuclear compartments). Black bar=200× magnification. Referring now to FIG. 25, primary PDAC cell line ASPC1 was treated with 100 nM of ATRA and 1 μM of DAC, or combination of 100 nM of ATRA plus 200 nM of DAC. […] DNA (100 ng) was isolated at 96 hours post transfection and was used to quantify global 5-methyla-cytosine (5-mC) methylation using LINE1 global DNA methylation kit (ACTIVE MOTIF). […]
For orientation: Quantitative PCR measures a nucleic acid by following its amplification.

Assay [3] relates to primary PDAC cell line ASPC1. The experiment in a line: Morphological analysis by giemsa staining for induction of differentiation. It counts as cell-based, human. The note with it: DT1 at 0.5-2 μM. The procedure:
Referring now to FIG. 23, primary PDAC cells were incubated with 2 μM of DT1 and 1 uM of THU for 96 hrs. RNA was isolated and gene expression pancreas differentiation factors were analyzed in ASPC1 and BXPC3 cells. Referring now to FIG. 24, primary PDAC cell line ASPC1 was treated with 1 μM of THU, 2 μM of DT1, and 1 μM of DAC, or the combination of 0.5 μM of DT1 plus 0.2 μM of DAC, or 1 μM of THU and 0.5 μM of DT1 plus 0.2 μM of DAC. Morphological analysis was performed using a giemsa staining method to determine induction of differentiation (enlargement of cytoplasm and reduction of nuclear compartments). Black bar=200× magnification. Referring now to FIG. 25, primary PDAC cell line ASPC1 was treated with 100 nM of ATRA and 1 μM of DAC, or combination of 100 nM of ATRA plus 200 nM of DAC. Morphological analysis was performed using a giemsa staining method to determine induction of differentiation (enlargement of cytoplasm and reduction of nuclear compartments). Black bar=200× magnification. Referring now to FIG. 26, pancreatic cancer cell line ASPC1 was treated with DMSO as control, 1 μM of THU, and varying DT1 concentrations. DNA (100 ng) was isolated at 96 hours post transfection and was used to quantify global 5-methyla-cytosine (5-mC) methylation using LINE1 global DNA methylation kit (ACTIVE MOTIF). […]

The subject of assay [4] is orthotopic xenografts of PDAC with AsPC-1 cells. The experiment in a line: Orthotopic PDAC xenograft model, tumor growth kinetics. The note with it: THU 10 mg/kg three times weekly, 35 days. It counts as in vivo. The procedure:
Orthotopic mouse models with human PDAC cells were generated using NOD/SCID mice. In vivo BLI was conducted on a NiteOwl system and acquisition software. Data were analyzed using eLumenate analysis software. For the primary tumor, signal intensity was quantified as the sum of all detected photon counts within a region of interest selected by an automated maximum entropy method and normalized to the area of that region of interest. For the metastatic region, a region of interest was drawn manually in a “crescent” shape which encompassed all of the abdominal region except the primary tumor and maintained a boundary at least 2 mm away from the ROI for the primary. The signal in the metastatic region was again quantified by dividing the sum of all detected photon counts in the region by the area of the region.
Referring to FIG. 30, bioluminescent and primary PDAC cell lines ASPC1 and MiPaCa-2 were used to generate PDAC xenografts for therapeutic validation. At 22 days post injection of tumor cells, tumor growth and metastatic dissemination are detected in this orthotopic models in NOD/SCID mice. Referring to FIG. 31, orthotopic xenografts of PDAC with AsPC-1 cells were treated with vehicle control, Tetrahydrouridine (THU, 10 mg/kg), Decitabine (DAC, 0.2 mg/kg), or combination of THU (10 mg/kg) with DAC (0.1 mg/kg) three times weekly. […]

Regarding `C/C(=N\O)c1c[nH]c(=O)[nH]c1=O` [DT1], in assay [1], the “global DNA methylation” value was “decreased global DNA methylation”. Moreover, the “concentration range at which DT1 activity was observed” value in assay [2] is “micromolar range”. In addition, the PDAC proliferation entry in assay [2] (DT1 at 0.5-2 μM) is “decreased PDAC proliferation”. The “expression of pancreas differentiation factors” value in the assay on ASPC1 and BXPC3 cells is “upregulated pancreas differentiation factors”. Also, in assay [3], the differentiation-based morphological changes result is on record as “induced differentiation-based morphological changes”.
With `O=C1NC(O)CCN1[C@@H]1O[C@H](CO)[C@@H](O)[C@H]1O` (stereo partly shown) [THU, tetrahydrouridine, reference compound], the PDAC proliferation result in assay [2] (alone or in combination, methods: 0.2-2 μM of DT1 and DAC, 1-2 μM of THU) is “did not inhibit PDAC proliferation alone”. In assay [4], the tumor growth kinetics result is given as “did not affect tumor growth kinetics”.
